# System: M. gallisepticum (MG) field-isolated strain T
# Experiment: In vivo test on chickens inoculated with M. gallisepticum in right air sacs
# Conditions: oral, 5 chickens tested, autopsy 7th day
Structure (SMILES),No. of lesions of right air sacs: -- (1 × 50 mg/kg),No. of lesions of right air sacs: Moderate to severe (1 × 50 mg/kg),No. of lesions of right air sacs: Slight (1 × 50 mg/kg),No. of lesions of right air sacs: -- (1 × 100 mg/kg),No. of lesions of right air sacs: Moderate to severe (1 × 100 mg/kg),No. of lesions of right air sacs: Slight (1 × 100 mg/kg),No. of lesions of right air sacs: -- (1 × 200 mg/kg),No. of lesions of right air sacs: Moderate to severe (1 × 200 mg/kg),No. of lesions of right air sacs: Slight (1 × 200 mg/kg)
"CN(C)[C@@H]1C(O)=C(C(N)=O)C(=O)[C@@]2(O)C(O)=C3C(=O)c4c(O)ccc(Cl)c4[C@@](C)(O)[C@H]3C[C@@H]12 [CTC, Chlortetracycline]",1,3,1,2,2,1,,,
"CC[C@H]1OC(=O)C[C@@H](O)[C@H](C)[C@@H](O[C@@H]2O[C@H](C)[C@@H](O[C@H]3C[C@@](C)(O)[C@@H](O)[C@H](C)O3)[C@H](N(C)C)[C@H]2O)[C@@H](CC=O)C[C@@H](C)C(=O)/C=C/C(C)=C/[C@@H]1CO[C@@H]1O[C@H](C)[C@@H](O)[C@@H](OC)[C@H]1OC [TS, Tylosin]",,,,1,4,0,0,2,3
